Usually IC50 stands for the midpoint of a concentration-inhibition curve. The low end stands for inhibition by little substance, the high end for a need for much substance. The EC50 is the concentration at which the effect is half-maximal. Low values mean higher potency in that assay, high ones lower potency in that assay. Usually pKa stands for the negative logarithm of the acid dissociation constant. Read a low pKa as a group that gives up its proton readily.

Our source for the IC50, EC50 and pKa values is ChEMBL document CHEMBL1135397, “Novel 1-hydroxyazole bioisosteres of glutamic acid. Synthesis, protolytic properties, and pharmacology” (J Med Chem, 2002).

The target in series [1] is Excitatory amino acid transporter 1 (Homo sapiens, UniProt P43003). Put plainly: Binding affinity for Excitatory amino acid transporter 1 (EAAT-1) in Glu uptake system.
Chain of Excitatory amino acid transporter 1 (P43003 whole entry): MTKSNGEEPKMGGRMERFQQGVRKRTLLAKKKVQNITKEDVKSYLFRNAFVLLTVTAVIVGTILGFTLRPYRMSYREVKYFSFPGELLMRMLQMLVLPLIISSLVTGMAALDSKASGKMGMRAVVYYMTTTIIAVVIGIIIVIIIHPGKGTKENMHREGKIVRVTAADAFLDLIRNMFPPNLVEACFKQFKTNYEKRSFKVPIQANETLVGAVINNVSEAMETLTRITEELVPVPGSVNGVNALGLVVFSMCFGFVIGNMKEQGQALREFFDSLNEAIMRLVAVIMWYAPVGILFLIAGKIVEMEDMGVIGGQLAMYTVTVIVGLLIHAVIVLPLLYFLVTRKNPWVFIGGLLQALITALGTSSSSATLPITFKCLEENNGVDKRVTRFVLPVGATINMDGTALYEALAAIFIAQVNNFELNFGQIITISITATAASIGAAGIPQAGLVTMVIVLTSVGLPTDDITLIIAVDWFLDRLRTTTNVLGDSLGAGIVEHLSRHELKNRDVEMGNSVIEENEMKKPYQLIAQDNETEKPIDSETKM
Series [2] addresses Excitatory amino acid transporter 2 (Homo sapiens, UniProt P43004). Put plainly: Binding affinity for Excitatory amino acid transporter 2 (EAAT-2) in Glu uptake system.
Series [3] addresses T1, Excitatory amino acid transporter 3 (Homo sapiens, UniProt P43005).
T1 sequence (P43005 whole entry): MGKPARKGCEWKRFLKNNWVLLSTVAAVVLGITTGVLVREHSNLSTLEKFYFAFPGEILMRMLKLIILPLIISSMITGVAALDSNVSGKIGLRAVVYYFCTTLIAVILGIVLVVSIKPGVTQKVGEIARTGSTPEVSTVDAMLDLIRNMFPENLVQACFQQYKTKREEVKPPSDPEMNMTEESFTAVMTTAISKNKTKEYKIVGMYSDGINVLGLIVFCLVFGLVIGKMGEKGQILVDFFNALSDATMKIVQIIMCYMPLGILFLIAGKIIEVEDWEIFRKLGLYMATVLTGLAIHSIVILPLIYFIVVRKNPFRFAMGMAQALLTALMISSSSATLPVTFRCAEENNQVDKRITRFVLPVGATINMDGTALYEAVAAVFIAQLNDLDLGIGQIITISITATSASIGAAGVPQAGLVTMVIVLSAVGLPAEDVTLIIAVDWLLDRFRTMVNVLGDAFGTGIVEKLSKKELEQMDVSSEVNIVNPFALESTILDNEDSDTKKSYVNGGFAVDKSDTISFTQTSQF
Description: Binding affinity for Excitatory amino acid transporter 3 (EAAT-3) in Glu uptake system.

Series [4] can be described thus: Measure of synaptosomal Glu uptake system using [3H]- -D-aspartic acid as radioligand.
The target of series [5] is Glutamate receptor ionotropic, kainate. Put plainly: Binding affinity for Ionotropic glutamate receptor using [3H]- kainic acid. Format: protein-complex assay, Rattus norvegicus.
A further series has as its target Glutamate NMDA receptor. Put plainly: Binding affinity for N-methyl-D-aspartate glutamate receptor (NMDA) using [3H]- CPP. It counts as protein-complex assay, Rattus norvegicus.
The next series is filed under the species Rattus norvegicus. Put plainly: EC50 value was measured in rat cortical wedge preparation. Format: functional.
Series [6] addresses Glutamate receptor ionotropic, AMPA (Rattus norvegicus, UniProt P19490+P19491+P19492+P19493).
The nature of series [7]: physchem.
Series [8] is described as follows: physchem. The source holds these as a separate data set.
The nature of series [9]: physchem. The source holds these as a separate data set.
Series [10] is described as follows: Measure of synaptosomal Glu uptake system using [3H]- -D-aspartic acid as radioligand. Format: functional.

Chain of Excitatory amino acid transporter 2 (P43004 whole entry): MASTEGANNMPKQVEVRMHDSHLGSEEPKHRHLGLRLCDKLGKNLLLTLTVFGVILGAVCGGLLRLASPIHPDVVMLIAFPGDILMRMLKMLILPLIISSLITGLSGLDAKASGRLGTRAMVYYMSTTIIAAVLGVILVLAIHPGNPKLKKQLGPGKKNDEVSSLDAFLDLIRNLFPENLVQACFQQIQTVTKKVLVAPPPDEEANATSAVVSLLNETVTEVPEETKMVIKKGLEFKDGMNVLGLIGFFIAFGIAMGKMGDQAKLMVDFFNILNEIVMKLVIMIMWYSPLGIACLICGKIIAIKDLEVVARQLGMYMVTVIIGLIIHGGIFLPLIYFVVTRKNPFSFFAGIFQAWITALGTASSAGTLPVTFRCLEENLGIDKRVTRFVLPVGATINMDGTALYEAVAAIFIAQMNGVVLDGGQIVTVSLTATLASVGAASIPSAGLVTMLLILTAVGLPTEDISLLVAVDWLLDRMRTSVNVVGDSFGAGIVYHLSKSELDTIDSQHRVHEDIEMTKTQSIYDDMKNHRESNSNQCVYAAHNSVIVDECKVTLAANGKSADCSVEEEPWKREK

For `Cc1ncn(O)c1CC(N)C(=O)O` (stereo not drawn), the IC50 was more than 1000 µM in series [1]; more than 1000 µM in series [2]; more than 1000 µM in series [3]; more than 200 µM in [4]; more than 100 µM in series [5]; more than 100 µM on Glutamate NMDA receptor. Further, the half-inhibitory concentration (IC50) in [6] was more than 100 µM. The compound also displayed a 50% effective concentration (EC50) in the series filed under Rattus norvegicus of more than 1000 µM. Besides, the pKa in the series “physchem [7]” turned out to be 10.2; in “physchem [8]” it was 8.82; in “physchem [9]” it was 2.81.

For the compound `NC(Cc1ccnn1O)C(=O)O` (stereo not drawn), the IC50 in series [1] is more than 1000 µM; in series [2], 430 µM; in [3], more than 1000 µM; in series [4], more than 200 µM; in series [5], more than 100 µM; at Glutamate NMDA receptor, more than 100 µM. For the same compound, the IC50 in series [6] worked out at 2.7 µM. The EC50 in the series listed under Rattus norvegicus stood at 280 µM. For the same compound, the pKa in “physchem [7]” is 9.48; in “physchem [8]”, 5.78; in “physchem [9]”, 1.78.

On to `NC(Cc1conc1O)C(=O)O` (stereo not drawn), for which the 50% inhibitory concentration (IC50) in series [1] was 270 µM; in series [2] it was 240 µM; in series [3] it was more than 1000 µM; in [4] it was more than 200 µM; in series [5], more than 100 µM; at Glutamate NMDA receptor, more than 100 µM. Half-maximal inhibition in [6] (IC50) was put at 0.27 µM. Further, the EC50 in the series filed under Rattus norvegicus was found to be 900 µM.

Regarding `NC(Cc1cnnn1O)C(=O)O` (stereo not drawn), the IC50 in series [1] was 100 µM; in series [2], 300 µM; in series [3], more than 1000 µM; in series [4] it was 93 µM; in series [5], 47 µM; at Glutamate NMDA receptor, more than 100 µM. In series [6], this compound had an IC50 of 0.15 µM. For the same compound, the EC50 in the series filed under Rattus norvegicus is more than 1000 µM.

Consider `Cc1cnc(CC(N)C(=O)O)n1O` (stereo not drawn), for which the IC50 is more than 1000 µM in series [1]; more than 1000 µM in [2]; more than 1000 µM in [3]; more than 200 µM in [4]; more than 100 µM in series [5]; more than 100 µM on Glutamate NMDA receptor. In series [6], this compound had a 50% inhibitory concentration (IC50) of more than 100 µM. In the series listed under Rattus norvegicus, this compound displayed an EC50 of more than 1000 µM.

Take `Cc1nnn(O)c1CC(N)C(=O)O` (stereo not drawn): the IC50 is more than 1000 µM in series [1]; 490 µM in [2]; more than 1000 µM in series [3]; more than 200 µM in series [4]; 90 µM in series [5]; more than 100 µM on Glutamate NMDA receptor. In addition, in series [6], half-maximal inhibition (IC50) was put at 0.13 µM. The EC50 in the series listed under Rattus norvegicus was 15 µM. Moreover, the values for the pKa in “physchem [7]”, in the series “physchem [8]” and in the series “physchem [9]” were 9.24, 5.07 and 1.48, respectively.

In the case of `NC(Cc1cncn1O)C(=O)O` (stereo not drawn), the IC50 in series [1] is more than 1000 µM; in series [2], more than 1000 µM; in [3], more than 1000 µM; in [4], more than 200 µM; in series [5] it was more than 100 µM; at Glutamate NMDA receptor, more than 100 µM. In addition, in [6], the IC50 is more than 100 µM. Besides, the EC50 in the series filed under Rattus norvegicus was more than 1000 µM.

As for `NC(Cc1nccn1O)C(=O)O` (stereo not drawn), the IC50 in series [1] was more than 1000 µM; in [2], more than 1000 µM; in series [3] it was more than 1000 µM; in series [4], more than 200 µM; in series [5], more than 100 µM; on Glutamate NMDA receptor, more than 100 µM. This compound returned an IC50 in [6] of more than 100 µM. The compound further gave a concentration giving a half-maximal response (EC50) in the series listed under Rattus norvegicus of more than 1000 µM.

In the case of `Cc1onc(O)c1CC(N)C(=O)O` [(R,S)-AMPA], the IC50 in series [1] is more than 1000 µM; in series [2], more than 1000 µM; in [3], more than 1000 µM; in series [10], more than 200 µM. In addition, the values for the pKa in the series “physchem [8]” and in “physchem [9]” were 5.12 and 1.94, respectively.

As to `Cc1cnn(O)c1CC(N)C(=O)O` (stereo not drawn), the IC50 is more than 1000 µM in series [1]; more than 1000 µM in series [2]; more than 1000 µM in [3]; more than 200 µM in [4]; more than 100 µM in series [5]; more than 100 µM on Glutamate NMDA receptor. In series [6], this compound came in with an IC50 of 2.6 µM. For the same compound, in the series filed under Rattus norvegicus, the EC50 came out at 586 µM. Besides, the results for the pKa in the series “physchem [7]”, in the series “physchem [8]” and in the series “physchem [9]” were 9.81, 5.89 and 2.05, respectively.

As to `Cc1ncc(CC(N)C(=O)O)n1O` (stereo not drawn), the half-maximal inhibitory concentration (IC50) in series [1] is more than 1000 µM; in series [2], more than 1000 µM; in series [3] it was more than 1000 µM; in series [4], more than 200 µM; in series [5] it was more than 100 µM; on Glutamate NMDA receptor, more than 100 µM. The IC50 in [6] is more than 100 µM. In the series listed under Rattus norvegicus, this compound showed a half-maximal effective concentration (EC50) of more than 1000 µM.
